In patent US20250326742A1, “THERAPEUTIC COMPOUNDS” (RUTGERS, THE STATE UNIVERSITY OF NEW JERSEY, priority 2024, published 2025) one finds CC50, IC50 and EC50 data, which are given here for 14 compounds.

Where only a bound is given, the exact number is not on record here.

The subject of one data set is Vero E6 cells. The data set can be described thus: Cytotoxicity assay in Vero E6 cells (neutral red uptake). The following applies: 2 days at 37° C. Type of data set: cell-based. As to the method:
(§1) Cytotoxicity Assay in Vero E6 Cells
(§2) Briefly, 80,000 cells/ml of the tested cell lines were dispensed into 96-well cell culture plates at 100 μl per well. Twenty-four hours later, the growth medium was removed and washed with 150 μl of PBS buffer. Two hundred microliters of fresh serum-free medium containing serial diluted compounds was added to each well. After incubating for 2 days at 37° C., the medium was removed and replaced with 100 μl of DMEM medium containing neutral red (40 μg/ml) and incubated for 2 to 4 hours at 37° C. The amount of neutral red taken up was determined by measuring the absorbance at 540 nm using a Multiskan FC Microplate Photometer (Thermo Fisher Scientific). The CC50 values were calculated from best-fit dose-response curves with variable slope in Prism 8.

The target in the next data set is SARS-CoV-2 PLpro (Severe acute respiratory syndrome coronavirus 2, UniProt P0DTD1). The data set can be described thus: biochemical. The following applies: 200 nM PLpro, 10 μM FRET substrate, 30 min preincubation at 30° C. As to the method: FRET-Based PL^pro Enzymatic Assay
The SARS-CoV-2 PL^pro enzymatic assays were carried out as follows: The assay was assembled in 96-well plates with 100 μl of 200 nM PL^Pro protein in PL^Pro reaction buffer [50 mM Hepes (pH 7.5), 0.01% Triton X-100, and 5 mM DTT]. Then, 1 μl of testing compound at various concentrations was added to each well and incubated at 30° C. for 30 minutes. The enzymatic reaction was initiated by adding 1 μl of 1 mM FRET substrate (the final substrate concentration is 10 μM). The reaction was monitored in a Cytation 5 image reader with filters for excitation at 360/40 nm and emission at 460/40 nm at 30° C. for 1 hour. The initial velocity of the enzymatic reaction with and without testing compounds was calculated by linear regression for the first 15 minutes of the kinetic progress curve. The ICso values were calculated by plotting the initial velocity against various concentrations of testing compounds with a dose-response function in Prism 8 software.

Data set [1] has as its system SARS-CoV-2 viral replication. The following applies: cited from earlier work.
Data set [2] can be described thus: Cytotoxicity assay in Vero E6 cells (neutral red uptake). Type of data set: cell-based. Particulars: African green monkey, 2 days at 37° C. As to the method: as §1, §2

Usually CC50 stands for the concentration giving 50% cytotoxicity. Low readings indicate greater toxicity to the cells, high ones lower toxicity to the cells. Usually IC50 stands for the concentration that inhibits the measured activity by half. Low values mean inhibition by little substance, high ones a need for much substance. “(R)-2-(3-((2-Cyanoethyl)amino)-3-oxopropyl)-N-(1-(3-(1-ethyl-1H-pyrazol-3-yl)-5-(1-methyl-1H-pyrazol-4-yl)phenyl)ethyl)benzamide [Example 1]” showed a CC50 in the data set on Vero E6 cells of 146 µM. The half-inhibitory concentration (IC50) on SARS-CoV-2 PLpro was over 5 µM. Usually EC50 stands for the concentration at which the effect is half-maximal. With `Cc1ccc(N)cc1C(=O)N[C@H](C)c1cccc2ccccc12` [GRL0617], the EC50 in data set [1] is about 20 µM. `CCn1ccc(-c2cc(-c3cnn(C)c3)cc([C@@H](C)NC(=O)c3ccccc3CCC(=O)NNS(=O)(=O)CCl)c2)n1` [Example 10, (R)-2-(3-(2-((Chloromethyl)sulfonyl)hydrazineyl)-3-oxopropyl)-N-(1-(3-(1-ethyl-1H-pyrazol-3-yl)-5-(1-methyl-1H-pyrazol-4-yl)phenyl)ethyl)benzamide] registered a CC50 at 2 days in data set [2] of over 250 µM. This compound also registered an IC50 against SARS-CoV-2 PLpro of over 5 µM.

Consider `CCOC(=O)/C=C/C(=O)NCC(=O)NCc1ccccc1C(=O)NC1(c2cc(-c3cnn(C)c3)cc(-c3ccn(CC)n3)c2)CC1` [Example 23, ethyl (E)-4-((2-((2-((1-(3-(1-ethyl-1H-pyrazol-3-yl)-5-(1-methyl-1H-pyrazol-4-yl)phenyl)cyclopropyl)carbamoyl)benzyl)amino)-2-oxoethyl)amino)-4-oxobut-2-enoate], for which the CC50 at 2 days in data set [2] is over 500 µM. Also, at SARS-CoV-2 PLpro, the half-maximal inhibitory concentration (IC50) fell in the range of 1 to 5 µM.

`CCn1ccc(-c2cc(-c3cnn(C)c3)cc([C@@H](C)NC(=O)c3ccccc3CCC(=O)NNC(=O)/C=C/C(=O)NC34CC(C3)C4)c2)n1` [Example 20, (R,E)-2-(3-(2-(4-(Bicyclo[1.1.1]pentan-1-ylamino)-4-oxobut-2-enoyl)hydrazineyl)-3-oxopropyl)-N-(1-(3-(1-ethyl-1H-pyrazol-3-yl)-5-(1-methyl-1 H-pyrazol-4-yl)phenyl)ethyl)benzamide] gave a CC50 at 2 days in data set [2] of over 250 µM. This compound came in with an IC50 on SARS-CoV-2 PLpro of under 1 µM. The compound `CCn1ccc(-c2cc(-c3cnn(C)c3)cc([C@@H](C)NC(=O)c3ccccc3CCC(=O)NNC(=O)C(Cl)Cl)c2)n1` [Example 3, (R)-2-(3-(2-(2,2-Dichloroacetyl)hydrazineyl)-3-oxopropyl)-N-(1-(3-(1-ethyl-1H-pyrazol-3-yl)-5-(1-methyl-1H-pyrazol-4-yl)phenyl)ethyl)benzamide] showed a CC50 at 2 days in data set [2] of over 500 µM. In addition, on SARS-CoV-2 PLpro, the IC50 lay in the range of 1 to 5 µM. As to `C=CS(=O)(=O)NCC(=O)NCc1ccccc1C(=O)N[C@H](C)c1cc(-c2cnn(C)c2)cc(-c2ccn(C)n2)c1` [Example 30, (R)-N-(1-(3-(1-methyl-1H-pyrazol-3-yl)-5-(1-methyl-1H-pyrazol-4-yl)phenyl)ethyl)-2-((2-(vinylsulfonamido)acetamido)methyl)benzamide], the cytotoxic concentration (CC50) at 2 days in data set [2] was over 250 µM. At SARS-CoV-2 PLpro, this compound showed an IC50 of under 1 µM. `CCn1ccc(-c2cc(-c3cnn(C)c3)cc([C@@H](C)NC(=O)c3ccccc3CCC(=O)NNS(=O)(=O)C(Cl)Cl)c2)n1` [Example 11, (R)-2-(3-(2-((dichloromethyl)sulfonyl)hydrazineyl)-3-oxopropyl)-N-(1-(3-(1-Ethyl-1H-pyrazol-3-yl)-5-(1-methyl-1H-pyrazol-4-yl)phenyl)ethyl)benzamide] registered a CC50 at 2 days in data set [2] of over 250 µM. The IC50 at SARS-CoV-2 PLpro was over 5 µM. Regarding `CCn1ccc(-c2cc(-c3cnn(C)c3)cc([C@@H](C)NC(=O)c3ccccc3CCC(=O)NNC(=O)/C=C/C(=O)N(C)C)c2)n1` [Example 12, (R,E)-2-(3-(2-(4-(Dimethylamino)-4-oxobut-2-enoyl)hydrazineyl)-3-oxopropyl)-N-(1-(3-(1-ethyl-1H-pyrazol-3-yl)-5-(1-methyl-1H-pyrazol-4-yl)phenyl)ethyl)benzamide], the CC50 at 2 days in data set [2] is over 500 µM. The same compound displayed an IC50 against SARS-CoV-2 PLpro of under 1 µM. Consider `C=C(Cl)C(=O)NNC(=O)CCc1ccccc1C(=O)N[C@H](C)c1cc(-c2cnn(C)c2)cc(-c2ccn(CC)n2)c1` [Example 17, (R)-2-(3-(2-(2-Chloroacryloyl)hydrazineyl)-3-oxopropyl)-N-(1-(3-(1-ethyl-1H-pyrazol-3-yl)-5-(1-methyl-1H-pyrazol-4-yl)phenyl)ethyl)], for which the CC50 at 2 days in data set [2] came out at 33 µM. Further, at SARS-CoV-2 PLpro, the IC50 was in the range of 1 to 5 µM. As for `CCn1ccc(-c2cc(-c3cnn(C)c3)cc(C3(NC(=O)c4ccccc4CNC(=O)CNC(=O)/C=C/C(=O)N4CC(F)(F)C4)CC3)c2)n1` [Example 24, (E)-2-((2-(4-(3,3-difluoroazetidin-1-yl)-4-oxobut-2-enamido)-acetamido)methyl)-N-(1-(3-(1-ethyl-1H-pyrazol-3-yl)-5-(1-methyl-1H-pyrazol-4-yl)phenyl)cyclopropyl)benzamide], the CC50 at 2 days in data set [2] was over 500 µM. Besides, on SARS-CoV-2 PLpro, the IC50 is 1 to 5 µM. On the same counts, the results for `CCn1ccc(-c2cc(-c3cnn(C)c3)cc([C@@H](C)NC(=O)c3ccccc3CNC(=O)CNC(=O)/C=C/C(=O)N3CC(F)(F)C3)c2)n1` [Example 25, (R,E)-2-((2-(4-(3,3-difluoroazetidin-1-yl)-4-oxobut-2-enamido)acetamido)methyl)-N-(1-(3-(1-ethyl-1H-pyrazol-3-yl)-5-(1-methyl-1H-pyrazol-4-yl)phenyl)ethyl)benzamide] are over 500 µM and under 1 µM. The matching figures for `C=CS(=O)(=O)NNC(=O)CCc1ccccc1C(=O)N[C@H](C)c1cc(-c2cnn(C)c2)cc(-c2ccn(CC)n2)c1` [Example 6, (R)-N-(1-(3-(1-Ethyl-1H-pyrazol-3-yl)-5-(1-methyl-1H-pyrazol-4-yl)phenyl)ethyl)-2-(3-oxo-3-(2-(vinylsulfonyl)hydrazineyl)propyl)benzamide]: 31 µM and under 1 µM. The matching figures for `C[C@@H](NC(=O)c1ccccc1CNC(=O)CNC(=O)CC#N)c1cc(-c2cnn(C)c2)cc(-c2ccn(C)n2)c1` [Example 31, (R)-2-((2-(2-cyanoacetamido)acetamido)methyl)-N-(1-(3-(1-methyl-1H-pyrazol-3-yl)-5-(1-methyl-1H-pyrazol-4-yl)phenyl)ethyl)benzamide]: over 500 µM and over 5 µM.
